Results published in the NIST ThermoML archive (doi:10.1016/j.jct.2008.09.012).
Numbers after ± are expanded uncertainties.

Experiment: molar enthalpy of vaporization or sublimation
Conditions: 298.15 K; Liquid; Calvet microcalorimetry

Row | Structure (SMILES) | molar enthalpy
1 | COc1ccccc1F [2-fluoroanisole] | 12.5 ± 0.526 kcal/mol
2 | COc1cccc(F)c1 [3-fluoroanisole] | 11.5 ± 0.526 kcal/mol
3 | COc1ccc(F)cc1 [1-fluoro-4-methoxybenzene] | 11.6 ± 0.526 kcal/mol
